The structures appear in SMILES notation.

The record followed here is a melting point compilation (Tetko et al.; mined from patent text by program, amines drawn as free bases though some values may be those of a salt).

Turning to `CCCCCCc1cccc(-c2cn(C)cc(-c3ccccc3)c2=O)c1`, the melting point (in general, the temperature, or range, at which the solid turns liquid) was 93 to 95 °C. The result for `CCC(=O)c1cc2c(s1)CCC1CC(=O)N(c3ccc(Cl)cc3)N=C21` (configuration not stated) reads 135 to 138 °C; that for `O=[N+]([O-])c1sccc1-c1ccc(Cl)cc1`, 108 to 110 °C; that for `COc1ccc2cc3ncc(C#N)c(Nc4ccc(Cl)cc4Cl)c3cc2c1`, 215 to 217 °C. Compound `NC(=O)N1C(=O)C(=C(OC(=O)C=CC(=O)O)c2cccs2)c2cc(F)c(Cl)cc21` had a melting point of 229 to 232 °C. The compound `COc1cc(C)c(CNCCc2ccc(O)cc2)cc1O` came in with a melting point of 122 to 124 °C. Turning to `CCCCCCOc1ccc2[nH]c(C)c(CC(=O)O)c2c1`, the melting point is 65 to 67 °C.

In turn, `CC(C)Cn1c2c(c(=O)n(C)c1=O)C(=O)C(=Cc1cccnc1)S2` came in with a melting point of 215 to 216 °C. For the compound `COc1ccc(C(=O)c2ccccc2)cc1Cl`, the melting point worked out at 87 °C. Regarding `COc1ccc2c(c1OCc1ccccc1)CC(C(=O)O)N(C(=O)C(c1ccccc1)c1ccccc1)C2` (racemic), the melting point lay within 157 to 159 °C. The result for `CCCNc1ccc2oc([N+](=O)[O-])c(-c3ccccc3)c2c1` reads 158 to 160 °C; that for `CC1(C)OC(c2ccc(S(C)(=O)=O)cc2F)=C(c2ccccc2)C1=O`, 175 to 176 °C; that for `C#CCN(Cc1ccc2nc(NC(=O)C(C)(C)C)[nH]c(=O)c2c1)c1ccc(S(=O)(=O)N(C)C)cc1`, 217 to 220 °C.

On to `O=C(C1CCN(S(=O)(=O)c2ccc(Cl)cc2)CC1)N1CCN(c2ccncn2)CC1`, for which the melting point was 125 to 128 °C. The result for `O=C(CCc1cccnc1)NCCCCC1CCN(C(=O)Nc2cccc3ccccc23)CC1` reads 143 to 144 °C; that for `Cc1nn2c(C=O)c(-c3ccccc3)nc2s1`, 152 to 153 °C. The figure for `COc1ccccc1NC(=O)Nc1ccc(C2CCN(C(=O)Nc3ccc(OCC(O)CO)cc3Cl)CC2)cc1` (configuration not stated) is 158 to 161 °C; for `COc1cc(Nc2nc3cccc(-c4ccc(CN)cc4)c3o2)cc(OC)c1OC` it is 208 to 211 °C. As for `COc1ccc(N2CCOCC2)c2sc(NC(=O)N3C[C@@H]4CC[C@H]3C4)nc12`, the melting point is 149 °C. The figure for `CCCOCc1nc(C(C)(C)O)c(C(=O)O)n1Cc1ccc(-c2ccccc2-c2nnn[nH]2)cc1` is 166 to 168 °C; for `COP(=O)(OC)[C@H](C)NC(=O)[C@H](C)NC(=O)CNC(=O)CNC(=O)OCc1ccccc1` it is 124 to 127 °C; for `Cc1cc(C)c2cccc(OCc3c(Cl)ccc(S(=O)(=O)N4CCC[C@H]4C(=O)N4CCN(C(=O)c5ccc(C=NN)cn5)CC4)c3Cl)c2n1` it is 150 to 155 °C. With `Cc1nc(N)c2nc(C)n(NCCCNS(C)(=O)=O)c2c1C`, the melting point fell in the range of 215 to 217 °C. For `COC(OC)C(C)n1nnc2ccc(OCc3ccccc3)cc21` (configuration not stated), the melting point is 101 to 103 °C. Compound `COc1ccc(C2Sc3cccc4cccc(c34)N(CCN(C)C)C(=O)C2O)cc1` (configuration not stated) returned a melting point of 121 to 122 °C. The result for `O=C(CCNc1c(C(=O)O)[nH]c2cc(Cl)ccc12)c1cccc(F)c1` reads 258 to 260 °C; that for `C=C(Cl)C[C@@H](CC(=O)N(CC(=O)N(C)CCc1ccccn1)CC1CCCCC1)C(=O)N[C@@H](CC1CCCCC1)[C@@H](O)[C@@H](O)CC(C)C`, 140 °C; that for `CCc1cc(Cl)c(NN)c(Cl)c1`, 48 to 50 °C. The result for `COC(=O)NCCOc1cc(Oc2ccc(C(F)(F)F)cc2Cl)ccc1[N+](=O)[O-]` reads 91 to 92 °C; that for `CC1=C(c2ccccc2)C(=O)N(C(C)(C)C(O)c2cc(F)cc(F)c2)CO1` (configuration not stated), 87.6 to 89 °C.

Consider `CCOC(=O)NC(=S)Nc1cc(NC(=O)OC)ccc1NC(=O)CN(C)C`, for which the melting point lay within 171 to 172 °C.

In turn, `CCc1c(-c2ccc(O)cc2)c2ccc3ccc(CO)c1n32` yielded a melting point of 154 to 156 °C. With `CC(C)CCc1c(C(C)C)nc(C(C)C)c(CO)c1-c1ccc(F)cc1`, the melting point lay within 43 to 45 °C. The figure for `O=C1CC2(c3ccccc3)CCCC=C2C(=O)N1` (configuration not stated) is 241 to 243 °C; for `Clc1ccc2c(c1)N(c1ncnc3cnccc13)CC2` it is 194 to 196 °C. The compound `Cc1cc(F)cc(C=O)c1O` had a melting point of 49 to 52 °C. `Cc1c(C)c2c(c(C)c1N)CC(C)(CN1C(=O)c3ccccc3C1=O)O2` (configuration not stated): the melting point was 147 to 150 °C. The result for `O=C(Cl)Oc1c(CCl)cccc1CCl` reads 71.5 to 73.5 °C; that for `CC(C)(C)OC(=O)NCCCCC(=O)Nc1ccc(O)c(C(=O)O)c1`, 181 °C.

Regarding `Cc1sc(-c2ccco2)nc1O`, the melting point lay within 173 to 174 °C. The result for `O=C([C@H]1CC[C@H](Nc2nccc(-n3ncc4ccccc43)n2)CC1)N1CCOCC1` reads 191 to 192 °C; that for `Cc1ccccc1Nc1c(C(=O)C(C)C)cnc2c(CO)cccc12`, 116 to 118 °C; that for `CCC(C)n1ncn(-c2ccc(N3CCN(c4ccc(OC)cc4)CC3)c(Br)c2)c1=O` (configuration not stated), 145 °C. The result for `CCCc1nc(Cl)c(C(=O)O)n1Cc1ccc(C2(C(=O)O)CC=CC2)s1` reads 170 to 172 °C; that for `CC(C)c1nc(C2CCCCC2)cc(-c2ccc(F)cc2)c1CO`, 101 to 104 °C; that for `Cc1cc(COc2nn(Cc3ccccc3)cc2C=O)ccc1OCc1nc(-c2ccco2)oc1C`, 121 to 122 °C.

With `CC(C)(C)C(=O)CC(Sc1ccccc1)c1ccc(Cl)cc1` (configuration not stated), the melting point fell in the range of 127 to 128 °C. The figure for `Cc1c(Br)c2c(c3c1C(c1ccc(C(C)C)cc1)CO3)CCC2` (configuration not stated) is 127 to 128 °C. The result for `COc1ccc2c(c1)C13CCN(C)C(C2)C1CCC(=O)C3` (configuration not stated) reads 187 to 188 °C; that for `O=C1NC(=O)c2ccccc2/C1=C/Nc1ccc(N2CCOCC2)cc1`, 257 to 258 °C; that for `COc1cc2c(cc1OC)-c1c(C(=O)NC3CCCCC3)c(-c3cc(C)c(O)c(C)c3)c(C)n1CC2`, 273 to 276 °C. `CCCCCCCCS(=O)(=O)c1ccc(C#N)c(C#N)c1`: the melting point fell in the range of 70 to 71 °C. The result for `COc1ccc2c(c1)ncc1c(=O)n(-c3ccccc3)oc12` reads 170 °C; that for `CCC1CCCCN1CC(=O)NN=Cc1c(-c2ccccc2)nn2ccccc12` (configuration not stated), 156 to 158 °C. The figure for `CC(=NO)C(C)(C)NCCCNC(C)(C)C(Cn1cc(C)nc1[N+](=O)[O-])=NO` is 140 to 141 °C; for `N#Cc1ccc(N2CCN(Cc3cnc4c(c3)NC(=O)[C@@H]3CCCN43)CC2)c(F)c1` it is 226 °C. With `CS(=O)(=O)N1CCC(C(CS(=O)(=O)c2ccc(Oc3ccc(OC(F)(F)F)cc3)cc2)N(O)C=O)CC1` (configuration not stated), the melting point fell in the range of 178 to 179 °C. The figure for `CCON=C(C)c1cccc(S(N)(=O)=O)c1` is 157 to 158 °C; for `O=C(NO)C1C2CCC(CC2)C1S(=O)(=O)c1ccc(Oc2ccccc2)cc1` (configuration not stated) it is 89.9 to 91.8 °C. Take `Nc1ccc(Cl)cc1C(=O)NCCCn1ccnc1`: the melting point was in the range of 155 to 157 °C.

`N#Cc1cnn2c(C(F)(F)F)cc(-c3ccc(Cl)cc3Cl)nc12` returned a melting point of 180 °C. The result for `CCOC(=O)C=Cc1ccc(Oc2nsnc(Cl)c2=O)cc1` reads 126 to 128 °C; that for `CCC[C@H]1CC[C@H](c2ncc(C#N)cn2)CC1`, 74 °C. `O=[N+]([O-])c1ccc(N2CCN(CC(O)(Cn3cncn3)c3ccc(Cl)cc3Cl)CC2)cc1` (configuration not stated) had a melting point of 168 °C.

In turn, `Cc1cccc(NC(=O)NCC(=O)N(CC(=O)N2CCC3(CC2)OCCO3)c2ccccc2)c1` came in with a melting point of 130 °C. The figure for `CNc1nc2ccc(-c3nc4cc(C)ccn4c3C)cc2s1` is 191 to 194 °C. Consider `COc1cc(Cc2cnc(N)nc2N)c2cc(C)oc2c1OC`, for which the melting point lay in the range of 209 to 212 °C. As to `O=[N+]([O-])Nc1ccnc(Cl)c1`, the melting point was in the range of 163 to 164 °C. The compound `CCOC(=O)COc1ccccc1C(=O)Nc1ccc(O)cc1` yielded a melting point of 208 to 210 °C. Turning to `Cc1cc(-c2cccc(C(F)(F)F)c2)c2ncc(C(F)(F)F)nc2c1`, the melting point fell in the range of 93 to 94 °C. Compound `CCOc1ccccc1CNC(=O)c1ccc2cnccc2n1` showed a melting point of 79 to 80 °C. On to `COc1ccc(C2CN(O)C3(c4ccccc4)CCCCC23)cc1OC` (configuration not stated), for which the melting point lay within 166 to 168 °C. The result for `CC(C)c1ccc(S(=O)(=O)n2c(CCC(=O)O)cc3cc(Cl)ccc32)cc1` reads 150 to 154 °C; that for `COC(=O)C(=O)CC(C)C1CCC2C3CC=C4CC(OC(C)=O)CCC4(C)C3CCC12C` (configuration not stated), 146 to 147 °C; that for `Cc1ccc(C)c(OCCCC(C)(C)C(=O)Nc2cccc(C3=NC(C)(C)CO3)c2C)c1`, 51 to 52 °C. The result for `COC(=O)C(C)(C)NS(=O)(=O)c1ccc2c(Cl)cnc(Cl)c2c1` reads 160 to 161 °C; that for `Cn1c([N+](=O)[O-])cnc1-c1nc2ccccc2c(=O)[nH]1`, 256 to 260 °C. `O=C1Nc2cccc(-c3cccc(NC(=O)c4cccc(Br)c4)c3)c2/C1=C/c1ccc[nH]1` returned a melting point of 251 to 253 °C. `CCCN(Cc1cccc(-c2noc(C)n2)c1)C(=O)Nc1ccc(-c2ccccc2S(=O)(=O)NC(C)(C)C)cc1` had a melting point of 150 to 151 °C.

As for `CC(C)(C)c1cc2ncnn2nc1OCCN1CCC(OC(c2ccccc2)c2ccccc2)CC1`, the melting point was 133 to 135 °C. The result for `CCCc1cc(-c2noc3cc(OC)ccc23)ccc1OC` reads 70 to 72 °C. Compound `Cn1[nH]c(=O)n(-c2ccc(Cl)cc2F)c1=S` displayed a melting point of 75 °C.

Take `COc1cc(NC(=O)OC(C)(C)C)c(Cl)c(OC)c1`: the melting point was 94.5 to 95.5 °C.

In turn, `CN(C)C(=O)C(O)(C(=O)O)c1ccc(Cl)c(Cl)c1` (configuration not stated) registered a melting point of 158 to 160 °C. The compound `O=C(CCc1cccc(C(F)(F)F)c1)NNC(=O)c1ccc2ncsc2c1` registered a melting point of 206 to 207 °C. The result for `O=C(C1CCN(S(=O)(=O)c2ccc3cc(Br)ccc3c2)CC1)N1CCN(c2ccncc2)CC1` reads 229 to 230 °C; that for `CC(=O)Nc1ccc(P(=O)(O)O)cc1`, 228 °C.
